# Assay results published in patent EP1383793B1 (priority 2000, dated 2001).
# Positions of bridges follow the written chain, without caps; N, C: chain ends. Residues, ends and D or L forms follow the SMILES beside them. No end group written: not given here. *: point of attachment. Biotin = O=C1N[C@H]2[C@H](CS[C@H]2CCCCC(=O)*)N1
# How the values were obtained:
# IR = molecular target: T1, IR (Homo sapiens, UniProt P06213); test: Phage ELISA, binding of phage-displayed peptides to IR
# T1 construct: composed of the extracellular domains of both the α and β chains of the natural receptor; made in house; background b13 names human embryonic kidney 293 cells for the Bass et al. construct
# T1 sequence (P06213 28-758 limits assumed): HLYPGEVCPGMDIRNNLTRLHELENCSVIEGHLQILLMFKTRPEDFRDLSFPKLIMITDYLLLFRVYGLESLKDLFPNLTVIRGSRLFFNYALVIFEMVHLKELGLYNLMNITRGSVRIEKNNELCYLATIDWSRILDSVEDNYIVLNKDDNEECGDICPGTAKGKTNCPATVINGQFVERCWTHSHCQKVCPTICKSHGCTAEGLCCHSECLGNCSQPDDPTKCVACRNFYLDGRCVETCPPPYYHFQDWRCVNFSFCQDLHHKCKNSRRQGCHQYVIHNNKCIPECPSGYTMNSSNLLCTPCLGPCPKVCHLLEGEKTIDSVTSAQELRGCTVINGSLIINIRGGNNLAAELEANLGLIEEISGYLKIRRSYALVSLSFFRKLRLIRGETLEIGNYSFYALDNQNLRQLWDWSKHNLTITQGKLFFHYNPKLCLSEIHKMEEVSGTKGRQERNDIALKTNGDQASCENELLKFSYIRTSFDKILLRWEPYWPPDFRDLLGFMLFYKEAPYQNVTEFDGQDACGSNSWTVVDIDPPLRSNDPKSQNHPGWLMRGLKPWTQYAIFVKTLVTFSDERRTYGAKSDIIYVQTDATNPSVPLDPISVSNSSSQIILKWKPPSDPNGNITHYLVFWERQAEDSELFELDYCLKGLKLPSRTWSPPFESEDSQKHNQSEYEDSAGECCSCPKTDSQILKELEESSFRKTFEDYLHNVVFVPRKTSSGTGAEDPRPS
# T1 sequence (P06213 763-956 limits assumed): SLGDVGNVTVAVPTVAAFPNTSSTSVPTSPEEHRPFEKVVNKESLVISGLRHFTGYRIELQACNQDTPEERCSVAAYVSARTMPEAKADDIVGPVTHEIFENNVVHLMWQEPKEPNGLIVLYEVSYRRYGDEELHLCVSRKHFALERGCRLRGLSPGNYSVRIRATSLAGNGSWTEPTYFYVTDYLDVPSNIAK
# Experimental: Amino acid sequences comprising the motif of Formulas 1 through 10. […] Fifty microliters of this solution was added to an appropriate number of wells in a 96-well microtiter plate (MaxiSorp plates, Nunc) and incubated overnight at 4°C. […] To isolate specific binders, each library was panned against a soluble form of the human IR. This IR is composed of the extracellular domains of both the α and β chains of the natural receptor, as well as the constant domain from immunoglobulin Fc, retaining the β-α-α-β structure described above. Because the IR is expressed in a eukaryotic system, disulfide bond formation and glycosylation patterns should mimic the wild-type receptor. The details of this recombinant protein construct are described in Bass et al. (1996). Phage ELISA. […] The wells were blocked with 200 µl of MPBS for 1.5 h at RT. […] Peptides were added as noted below and allowed to incubate at RT for 3 h. The plates were washed 3 times with PBST. A solution of 1:3000 diluted HRP:Anti-M13 conjugate at 100 µl per well of was added for 1 h. Following a repeat of the washing, 100 µl of ABTS was added for 15-30 min. […] Phage ELISA. […] Peptides were added as noted below and allowed to incubate at RT for 3 h. […] A solution of 1:3000 diluted HRP:Anti-M13 Conjugate at 100 µl per well of was added for 1 h. Following a repeat of the washing, 100 µl of ABTS was added for 15-30 min. The OD405 was measured using a SpectraMax 340 Microplate Spectrophotometer.
# Insulin receptor [1] = molecular target: T2, Insulin receptor (Homo sapiens, UniProt P06213); test: BIAcore competition: IR pre-incubated with test substance, injected over immobilised insulin; format: binding; conditions: peptide about 40 µM, IR 450 nM; IR alone 128 RU
# T2 construct: composed of the extracellular domains of both the α and β chains of the natural receptor; made in house; background b13 names human embryonic kidney 293 cells for the Bass et al. construct
# T2 sequence (P06213 28-758 limits assumed): as the sequence (P06213 28-758 limits assumed) above
# T2 sequence (P06213 763-956 limits assumed): as the sequence (P06213 763-956 limits assumed) above
# Experimental: Flowcell-1 was used for background binding to correct for any non-specific binding. […] The surface was regenerated with 25 mM NaOH. […] Thus, the system was validated for competition studies. […] The amino acid sequences referred to in the tables are identified in Figures 47 and 48, except the 447 and 2A9 sequences, which are shown below. TABLE 9: BIAcore Results-Fusion Proteins Compete for Binding to IR
# [2] = molecular target: T3, purified insulin receptor (Homo sapiens, UniProt P06213); test: Holoenzyme phosphorylation assay (IR autophosphorylation, Western blot); format: biochemical
# T3 construct: host or cells: 'Wheat Germ Agglutinin Expression System' (so in the source)
# T3 sequence (P06213 28-758 limits assumed): as the sequence (P06213 28-758 limits assumed) above
# T3 sequence (P06213 763-1382 limits assumed): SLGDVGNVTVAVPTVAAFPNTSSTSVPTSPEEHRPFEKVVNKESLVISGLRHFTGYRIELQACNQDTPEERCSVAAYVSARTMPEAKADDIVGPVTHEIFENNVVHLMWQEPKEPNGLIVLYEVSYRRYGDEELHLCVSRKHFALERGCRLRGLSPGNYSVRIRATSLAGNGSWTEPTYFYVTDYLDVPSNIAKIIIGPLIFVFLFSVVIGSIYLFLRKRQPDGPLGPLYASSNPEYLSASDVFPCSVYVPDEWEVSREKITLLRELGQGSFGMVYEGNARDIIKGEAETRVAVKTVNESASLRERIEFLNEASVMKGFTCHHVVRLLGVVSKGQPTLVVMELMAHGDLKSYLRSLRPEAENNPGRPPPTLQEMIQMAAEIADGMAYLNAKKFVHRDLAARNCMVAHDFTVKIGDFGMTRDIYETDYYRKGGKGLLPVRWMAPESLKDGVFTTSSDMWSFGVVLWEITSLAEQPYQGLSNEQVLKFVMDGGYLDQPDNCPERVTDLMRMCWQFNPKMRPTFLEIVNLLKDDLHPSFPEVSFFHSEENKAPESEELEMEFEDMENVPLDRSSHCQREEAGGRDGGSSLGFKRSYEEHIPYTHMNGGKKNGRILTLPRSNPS
# Experimental: Alternatively, IR autophosphorylation was determined using a holoenzyme phosphorylation assay. […] The reaction was stopped by adding 50 µl of gel loading buffer containing β-mercaptoethanol (Bio-Rad Laboratories, Inc., Hercules, CA). The samples were run on 4-12% SDS-polyacrylamide gels. Western Blot analysis was performed by transferring the proteins onto nitrocellulose membrane. The membrane was blocked in PBS containing 3% milk overnight. The membrane was incubated with anti-phosphotyrosine 4G10 HRP labeled antibody (Upstate Biotechnology) for 2 h. Protein bands were visualized using SuperSignal West Dura Extended Duration Substrate Chemiluminescence Detection System (Pierce Chemical Co.).
# IGF-1R [3] = molecular target: T4, IGF-1R (Homo sapiens, UniProt P08069); test: Phage ELISA, binding of phage-displayed peptides to IGF-1R; conditions: 405 nm
# T4 construct: Soluble IGF-1R was obtained from R&D Systems; purchased R&D Systems 391-GR/CF
# T4 sequence (P08069 31-736 limits assumed): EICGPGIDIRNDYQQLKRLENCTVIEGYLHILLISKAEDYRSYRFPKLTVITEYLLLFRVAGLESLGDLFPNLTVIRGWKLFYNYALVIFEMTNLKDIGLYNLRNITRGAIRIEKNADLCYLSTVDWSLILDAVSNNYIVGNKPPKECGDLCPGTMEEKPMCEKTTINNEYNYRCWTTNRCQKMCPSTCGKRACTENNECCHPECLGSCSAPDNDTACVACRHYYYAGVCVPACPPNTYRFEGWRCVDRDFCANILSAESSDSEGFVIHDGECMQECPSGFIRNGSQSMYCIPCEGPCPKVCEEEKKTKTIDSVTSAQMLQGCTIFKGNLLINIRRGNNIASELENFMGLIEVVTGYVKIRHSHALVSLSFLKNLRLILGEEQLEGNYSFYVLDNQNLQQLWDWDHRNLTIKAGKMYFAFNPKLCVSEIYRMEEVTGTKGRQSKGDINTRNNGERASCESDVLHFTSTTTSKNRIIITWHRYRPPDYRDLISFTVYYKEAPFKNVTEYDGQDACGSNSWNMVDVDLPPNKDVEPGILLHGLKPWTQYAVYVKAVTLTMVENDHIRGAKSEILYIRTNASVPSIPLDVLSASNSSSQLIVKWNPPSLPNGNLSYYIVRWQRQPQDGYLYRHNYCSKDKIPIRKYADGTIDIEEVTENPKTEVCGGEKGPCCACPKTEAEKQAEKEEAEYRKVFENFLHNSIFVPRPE
# T4 sequence (P08069 741-935 limits assumed): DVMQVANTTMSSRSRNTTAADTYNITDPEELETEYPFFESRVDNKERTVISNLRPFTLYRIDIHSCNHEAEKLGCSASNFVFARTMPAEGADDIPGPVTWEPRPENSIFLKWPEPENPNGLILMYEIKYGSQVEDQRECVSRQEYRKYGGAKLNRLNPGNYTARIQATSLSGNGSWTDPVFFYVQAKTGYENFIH
# Experimental: Figures 1A-10G. Amino acid sequences comprising the motif of Formulas 1 through 10. […] One hundred microliters of this solution was added to an appropriate number of wells in a 96-well microtiter plate (MaxiSorp plates, Nunc) and incubated overnight at 4°C. […] Subsequent steps are the same for pooled and clonal phage. […] Phage resuspended in MPBS were added to duplicate wells (100 µl/well) and incubated at RT for 1 h. […] Incubation was for 1 h at RT, followed by PBS washes as described. […] Phage ELISA. […] The wells were blocked with 200 µl of MPBS for 1.5 h at RT. Phage were added at 100 µl per well. Peptides were added as noted below and allowed to incubate at RT for 3 h. The plates were washed 3 times with PBST. A solution of 1:3000 diluted HRP:Anti-M13 conjugate at 100 µl per well of was added for 1 h. Following a repeat of the washing, 100 µl of ABTS was added for 15-30 min. […] Phage ELISA. […] Phage were added at 100 µl per well. Peptides were added as noted below and allowed to incubate at RT for 3 h. The plates were washed 3X with PBST. A solution of 1:3000 diluted HRP:Anti-M13 Conjugate at 100 µl per well of was added for 1 h. Following a repeat of the washing, 100 µl of ABTS was added for 15-30 min. The OD405 was measured using a SpectraMax 340 Microplate Spectrophotometer.
# adipocytes = test: 3H-glucose uptake into adipocytes (fat cell assay, FFC); format: cell-based, Mouse; set-up: key to Resp.: -2 (antagonist); +2 (agonist); conditions: for Resp.: Subjective ranking, basal and sub maximal insulin, includes series A
# [4] = molecular target: human IGF-1 receptor (HIGF-1R) (Homo sapiens, UniProt P08069); test: 125I-IGF-1 competition binding assay on solubilised purified receptor; conditions: Kd HIGF1R / Kd HIR
# human IGF-1 receptor (HIGF-1R), sequence (P08069 31-736 limits assumed): as the sequence (P08069 31-736 limits assumed) above
# human IGF-1 receptor (HIGF-1R), sequence (P08069 741-1367 limits assumed): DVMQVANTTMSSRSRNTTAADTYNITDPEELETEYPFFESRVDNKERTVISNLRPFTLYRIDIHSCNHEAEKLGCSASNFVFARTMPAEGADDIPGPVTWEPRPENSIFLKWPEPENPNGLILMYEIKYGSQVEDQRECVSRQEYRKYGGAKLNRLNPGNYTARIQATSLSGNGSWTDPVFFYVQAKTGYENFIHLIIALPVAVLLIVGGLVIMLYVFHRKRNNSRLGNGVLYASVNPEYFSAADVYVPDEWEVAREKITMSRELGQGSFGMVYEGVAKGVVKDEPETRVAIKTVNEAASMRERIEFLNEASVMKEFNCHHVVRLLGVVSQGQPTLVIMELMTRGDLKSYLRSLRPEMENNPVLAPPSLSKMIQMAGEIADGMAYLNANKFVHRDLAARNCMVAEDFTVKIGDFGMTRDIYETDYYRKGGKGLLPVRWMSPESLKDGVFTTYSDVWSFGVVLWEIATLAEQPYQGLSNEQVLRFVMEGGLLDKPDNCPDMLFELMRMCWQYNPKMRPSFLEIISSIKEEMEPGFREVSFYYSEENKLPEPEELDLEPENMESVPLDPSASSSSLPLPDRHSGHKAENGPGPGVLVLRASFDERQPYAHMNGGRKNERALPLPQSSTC
# [5] = system: FDCP2 cells (NIH) which express IGF-1R; test: FDCP2 cell proliferation (WST-1), agonism; format: cell-based; conditions: not against IGF-1 R- cells
# Experimental: Agonistic and antagonistic activities of the IGF-1-specific peptides were tested in FDCP2 cells (NIH) which express IGF-1R. […] Agonism activity assays were performed in a total volume of 100 µl in 96 well plates (flat bottom).
# Proliferation assays were performed using WST-1 reagent. The WST-1 tetrazolium salt (slightly red) is cleaved to formazan (dark red) by the succinate-tetrazolium reductase system, which is active only in viable cells. An increase in the number of cells results in an increase in the overall activity of the dehydrogenase which results in a higher absorbance at 450 nm. […] Proliferation was measured by absorbance at 450 nm.
# Insulin receptor [6] = molecular target: T2, Insulin receptor; test: Heterogeneous time-resolved fluorescence assay (TRFA) on insulin receptor; format: binding
# Experimental: In this assay, saEu forms a ternary complex with bP and IR (i.e., IR:bP:saEu complex). The TRFD assay format is well established, sensitive, and quantitative (Tompkins et al., 1993). The assay can use a single-chain antibody or a biotinylated peptide.
# In these assays, soluble IR is coated on the surface of microtiter wells, blocked by a solution of 0.5% BSA and 2% non-fat milk in PBS, and then incubated with biotinylated peptide or rVab. Unbound bP is then washed away and saEu is added to complex with receptor-bound bP. Upon addition of the acidic enhancement solution, the bound europium is released as free Eu^3+ which rapidly forms a highly fluorescent and stable complex with components of the enhancement solution. The IR:bP bound saEu is then converted into its highly fluorescent state and detected by a detector such as Wallac Victor II (EG&G Wallac, Inc.)
# • a. Heterogeneous Time-Resolved Fluorescence Assay. […] The plates were blocked with TBS containing 2% milk and 0.5% BSA for 1 h at RT followed by three TBS washes. […] After TBS wash, europium-labeled streptavidin at 1 µg/ml in assay buffer (100 mM Tris-HCl, pH 7.8; 150 mM NaCl; 0.5% BSA; 0.05% bovine Ig; 0.05% NaN3; 0.01% Tween-20) was added to the plates and incubated for 1 h. To test binding of rVab antibodies to IR, Eu-labeled rVab antibodies in assay buffer were added to the plates and incubated for 2 h to overnight. After incubation with Eu-labeled streptavidin (for peptide test) or europium-labeled rVabs, the plates were washed 5 times with Tris-buffered saline (pH 7.5) containing 0.1 % Tween-20 (TTBS) and tapped dry. Sixty microliters of EG&G Wallac enhancement solution (100 mM acetone-potassium hydrogen pthalate, pH 3.2; […] 2-naphtyltrifluoroacetate; […] tri(n-octyl)-phosphine oxide; 0.1 % Triton X-100) was added into each well, and the plates were placed onto a shaker for 20 min at RT. […] Homogeneous Time-Resolved Fluorescence Assay. […] For library screening, 20 µM of small organic molecules in 2 % DMSO are included in the mixture.
# IGF-1R [7] = molecular target: T4, IGF-1R; test: Competitive phage ELISA with IGF-1 on IGF-1R; format: binding
# Experimental: For IC50 determinations in a competitive ELISA, microtiter plates were coated with IGF-1R and blocked as described. Phage were prepared as described. Prior to addition of phage to plates, the peptide or recombinant variable antibody or fragment ("rVab"), or an appropriate control, was diluted in PBS and added to duplicate wells (100 µl/well). After incubation for 1 h at RT, the prepared phage were added to each well (100 µl/well) without removing the peptide or rVab solution. After incubation for 1 h at RT, the wells were washed and the color developed as described above.
# The clones were next analyzed for binding to the receptor's active site (Figures 20A and 20B).
# For IC50 determinations, microtiter plates were coated with IGF-1R and blocked as described. Phage and soluble rVabs were prepared as described above. […] After incubation for 1 h at RT, the wells were washed and the color was developed as described above.
molecule,measurement,setting,value
CC[C@H](C)[C@H](NC(=O)[C@H](CCC(=O)O)NC(=O)[C@@H](N)CCCCN)C(=O)N[C@@H](CCC(=O)O)C(=O)N[C@@H](C)C(=O)N[C@@H](CCC(=O)O)C(=O)N[C@@H](Cc1c[nH]c2ccccc12)C(=O)NCC(=O)N[C@@H](CCCNC(=N)N)C(=O)N[C@H](C(=O)N[C@@H](CCCNC(=N)N)C(=O)N[C@H]1CSSC[C@@H](C(=O)N[C@H](C(=O)NCC(=O)NCC(=O)N[C@@H](CCCCN)C(=O)N[C@@H](CCCCNC(=O)CCCC[C@@H]2SC[C@@H]3NC(=O)N[C@@H]32)C(N)=O)C(C)C)NC(=O)[C@H](CCCNC(=N)N)NC(=O)CNC(=O)[C@H](Cc2ccc(O)cc2)NC(=O)[C@H](C(C)C)NC(=O)[C@H](CC(C)C)NC1=O)C(C)C [Clone 20A4] (H-KEIEAEWGRVRCLVYGRCVGGKK(Biotin)-NH2; disulfide 12-18 (inferred); N-terminus assumed),Absorbance Values IR,IR; 405 nm,1.61
same,Result (RUs),Insulin receptor [1],41.8 RUs
same,Autophosph. Blot,[2],0
same,Absorbance Values sIGF-1R,IGF-1R [3],0.21
same,Resp.,adipocytes,-1
CC[C@H](C)[C@@H]1NC(=O)[C@H](CCCNC(=N)N)NC(=O)[C@H](C(C)C)NC(=O)CNC(=O)[C@H](Cc2c[nH]c3ccccc23)NC(=O)[C@H](CO)NC(=O)[C@H](CCC(N)=O)NC(=O)[C@@H](NC(=O)[C@H](CC(C)C)NC(=O)[C@H](CC(=O)O)NC(=O)[C@H](CCCCN)NC(=O)[C@H](Cc2ccc(O)cc2)NC(=O)[C@@H](N)CC(=O)O)CSSC[C@@H](C(=O)N2CCC[C@H]2C(=O)N[C@@H](CCCCN)C(=O)N[C@@H](CCCCNC(=O)CCCC[C@@H]2SC[C@@H]3NC(=O)N[C@@H]32)C(N)=O)NC(=O)[C@H](CC(C)C)NC(=O)CNC(=O)[C@H](C)NC(=O)[C@H](CC(C)C)NC(=O)[C@H](Cc2c[nH]c3ccccc23)NC(=O)CNC1=O [JBA5] (H-DYKDLCQSWGVRIGWLAGLCPKK(Biotin)-NH2; disulfide 6-20 (inferred); N-terminus assumed),Ratio,[4],1.8
same,binding to IR when expressed as phage,IR,do not have detectable binding
same,Autophosph. Blot,[2],0
same,"Comments (dose response, effect at basal insulin)",adipocytes,Slight effect at basal insulin
same,ED50,"adipocytes; Estimated, not calculated values",> 20 µM
same,Resp.,adipocytes,+2
LCQRLGVGWPGWLSGWCA [Clone H5],activity toward IGF-1 R+ cells in cell culture,[5],agonistic activity
WNTVDPFYHKLSELLREKK [Clone B6],binding to IR when expressed as phage,IR,do not have detectable binding
same,competition with binding of 12H10 to IR,Insulin receptor [6],do not compete
same,inhibition of phage binding to immobilized IGF-1R by IGF-1,IGF-1R [7],could be inhibited with IGF-1
